Results taken from patent publication US20180353512A1, “COMBINATION THERAPIES FOR TREATING B-CELL MALIGNANCIES” (GILEAD SCIENCES, INC., priority 2015, published 2018).
Read-outs that look alike come from different tables or passages of the source.

Legend:
[1] = system: TMD8^R (Idelalisib-resistant line); assay: CellTiter-Glo viability assay at 96 h; type: cell-based; conditions: TMD8^R
Description: (§1) Growth inhibition to Idelalisib or other inhibitors was assessed using CellTiter-Glo viability assay at 96 h. […] Cell lines were analyzed by whole exome sequencing, RNASeq, and phosphoproteomics. Protein expression was measured using Simple Western and SDS/PAGE and western blot. Caspase 3/7 was measured using Caspase-Glo 3/7 assay; apoptosis was measured with Annexin V assay and propidium iodide by flow cytometry.
Cell viability EC50 was determined using a sigmoidal dose-response (variable slope) curve generated from quadruplicate samples. Statistical significance was determined using the student's t-test for cell viability and two-tailed paired t-test for apoptosis experiments in Prism (GraphPad).
Idelalisib-resistant (TMD8^R) cell line and passage-matched Idelalisib-sensitive (TMD8^S) cell line were generated according to the procedure described in Example 5 above. To characterize the resistant cells, cell viability assays, RNASeq of multidrug resistance (MDR) family of ABC transporter genes (N=33), apoptosis assays, and phosphoprotein analysis were performed. Cell viability was measured using CellTiter-Glo, as described in Example 1A above. Western blot and protein level analysis were performed after treatment with 420 nM idelalisib, 320 nM Compound B and combination thereof, using Peggy Sue (ProteinSimple) automated Western Blot system. Protein concentration (pg/μL) was quantitated using recombinant protein standards. Normalized AUC were determined for each of the treatment groups, normalized to actin. Apoptosis was assessed by propidium iodide and Annexin V/FITC staining and measured by flow cytometry, as described in Example 1A above. Western Blot with anti-p-AKT (S473) antibody and Peggy Sue were used to determine the phosphorylation state of downstream signaling components.

TMD8^R cells = assay: Apoptosis, Annexin V assay and propidium iodide by flow cytometry; type: cell-based; conditions: Annexin V at 48 h, Idelalisib=1 μM
Description: as §1

FSCCL (WSU-FSCCL) = assay: CellTiter Glo viability assay after 96 h; type: cell-based; conditions: read-out: EC50, cell viability
Description: (§2) Idelalisib resistance was established by continuous passaging of a clonal isolate of WSU-FSCCL in the presence of 1 μM idelalisib; clonal isolates from a passage-matched line (FSCCL^S) and idelalisib-resistant line (FSCCL^R) were generated through 2 rounds of single-cell-limiting dilution. Growth inhibition to idelalisib or other inhibitors was performed after 96 h using CellTiter Glo viability assay. Characterization of mutations and gene expression were identified by whole exome sequencing and RNA-Seq, respectively. Whole cell lysates were analyzed by western blots.

FSCCL^R SFK^HIGH = assay: CellTiter Glo viability assay after 96 h; type: cell-based
Description: as §2

[2] = system: FSCCL^R clone 1 (PI3KCA E970K); assay: CellTiter Glo viability assay after 96 h; type: cell-based; conditions: single agent, read-out: EC50
Description: as §2

[3] = system: FSCCL^R clone 2 (PI3KCA N345K); assay: CellTiter Glo viability assay after 96 h; type: cell-based; conditions: single agent, read-out: EC50
Description: as §2

[4] = system: FSCCL^R clone 3 (PI3KCA P539R); assay: CellTiter Glo viability assay after 96 h; type: cell-based; conditions: single agent, read-out: EC50
Description: as §2

FSCCL^R = assay: CellTiter Glo viability assay after 96 h; type: cell-based; conditions: FIG. 16, read-out: EC50, cell viability
Description: as §2

FSCCL^S = assay: CellTiter Glo viability assay after 96 h; type: cell-based
Description: as §2

[5] = cited from earlier work
parental TMD-8 = assay: 96-hour Cell Titer Glo viability assay, parental line; design: Emax: dose or concentration left out as unconfirmed; conditions: Homo sapiens
TMD8 tumor xenograft = TMD8 tumor xenograft model, tumor volume; type: in vivo, mice; design: tumor growth: dose or concentration left out as unconfirmed; conditions: oral gavage
Description: A TMD8 tumor xenograft model was generated by introducing cultured TMD8 cells into irradiated mice. All animal experiments were performed in accordance with the Institutional Animal Care and Use Committee (IACUC) protocol. Male CB17-SCID mice were treated with 1.44 Gy whole body irradiation using a ^60Co radiation source, and seventy-four hours later, 1×10^7 TMD8 cells were inoculated subcutaneously into the right flank. When tumors reached a mean volume of 200 mm^3, mice were randomly assigned to groups (n=13). […] All test compounds were formulated in 5% (v/v) N-Methyl-2-pyrrolidone (NMP)/55% (v/v) Polyethylene Glycol 300 (PEG) 300/40% (v/v) Water/1% (w/v) Vitamin E D-α-Tocopherol Polyethylene Glycol 1000 Succinate (TPGS). Tumor volume was calculated using the following formula: (length×width^2)/2, where length is the longest diameter across the tumor and width is the corresponding perpendicular diameter. Tumor growth inhibition rate was calculated using the following formula: 1−(tumor sizeend of compound treatment−tumor sizebeginning of compound treatment/tumor sizeend of vehicle treatment−tumor sizebeginning of vehicle treatment)×100.
The Analysis of Variance model for repeated measure was used to determine the treatment effect on tumor growth. The model fitted on tumor volume included factors of treatment, time, and their interaction. […]

p-BTK (Y223) = assay: Western Blot of TMD8 xenograft tumor samples; type: in vivo, mice; conditions: Compound B 10 mg/kg; normalized to total BTK
Description: Tumor samples obtained from the study were lysed and Western Blot was performed on the samples to determine the level of BTK and S6 phosphorylation, a downstream effector of PI3K signaling. Western Blots were performed according to the Western Blot procedure described in Example 3B above, using antibodies against p-S6 (S235/236), p-BTK (Y223), BTK and actin. Protein levels were determined using Peggy Sue (ProteinSimple) automated Western Blot system. Normalized AUC were determined for each of the treatment groups: p-BTK (Y223) was normalized to total BTK protein, and p-S6 (S235/236) was normalized to actin.

CCC(Nc1ncnc2[nH]cnc12)c1nc2cccc(F)c2c(=O)n1-c1ccccc1 (stereo not shown) [Idelalisib, 2-(1-((9H-Purin-6-yl)amino)propyl)-5-fluoro-3-phenylquinazolin-4(3H)-one]
inhibition at 1 µM ([1]; at 1 μM, read-out: Growth inhibition): 19% | EC50 ([1]; single agent, read-out: EC50, cell viability): > 10000 nM | apoptosis (TMD8^R cells; GSK-2334470=1 μM, vehicle control 22%): 24% | apoptosis (TMD8^R cells; MK-2206=1 μM, vehicle control 24%): 21% | EC50 (FSCCL (WSU-FSCCL)): 140 nM | EC50 (FSCCL^R SFK^HIGH; read-out: EC50 IDELA (+Dasatinib 10 nM)): 1880 nM | EC50 (FSCCL^R SFK^HIGH; read-out: EC50 IDELA (+ENTO 680 nM)): 2270 nM | EC50 [2]: > 3000 nM | EC50 [3]: > 3000 nM | EC50 [4]: > 3000 nM | EC50 (FSCCL^R): > 10000 nM | EC50 (FSCCL^S; FIG. 16, read-out: EC50, cell viability): 100 nM | EC50 (FSCCL^S; PI3KCA WT, Table 13, single agent, read-out: EC50): 110 nM | EC50 (FSCCL^S; Table 14, single agent, read-out: EC50): 213 nM | EC50 (FSCCL^S; Table 15, single agent, read-out: EC50): 213 nM | clinical Cmin [5]: 103 nM | Cmax ([5]; clinical): 591 nM | EC50 (parental TMD-8; TMD8, read-out: EC50, cell viability): 54 nM | Emax (parental TMD-8; TMD8, read-out: Emax, growth inhibition): 86%

CC#CC(=O)N1CC[C@@H](n2c(=O)n(-c3ccc(Oc4ccccc4)cc3)c3c(N)ncnc32)C1 [Compound B, 6-amino-9-[(3R)-1-(2-butynoyl)-3-pyrrolidinyl]-7-(4-phenoxyphenyl)-7,9-dihydro-8H-purin-8-one]
tumor growth inhibition (TMD8 tumor xenograft; 10 mg/kg BID, P<0.05): 75% | tumor growth (TMD8 tumor xenograft): did not inhibit tumor growth | reduction of p-BTK in tumors (p-BTK (Y223)): 35%
